This is an account of results in patent US8940310B2, “Methods of treatment using TLR7 and/or TLR9 inhibitors” (Dynavax Technologies Corporation, priority 2010, dated 2015).

Data set [1] addresses T1, TLR7 (Homo sapiens, UniProt Q9NYK1).
T1 construct: endogenous in cells; host or cells: primary human plasmacytoid dendritic cells from blood donors
T1 sequence (Q9NYK1 27-1049): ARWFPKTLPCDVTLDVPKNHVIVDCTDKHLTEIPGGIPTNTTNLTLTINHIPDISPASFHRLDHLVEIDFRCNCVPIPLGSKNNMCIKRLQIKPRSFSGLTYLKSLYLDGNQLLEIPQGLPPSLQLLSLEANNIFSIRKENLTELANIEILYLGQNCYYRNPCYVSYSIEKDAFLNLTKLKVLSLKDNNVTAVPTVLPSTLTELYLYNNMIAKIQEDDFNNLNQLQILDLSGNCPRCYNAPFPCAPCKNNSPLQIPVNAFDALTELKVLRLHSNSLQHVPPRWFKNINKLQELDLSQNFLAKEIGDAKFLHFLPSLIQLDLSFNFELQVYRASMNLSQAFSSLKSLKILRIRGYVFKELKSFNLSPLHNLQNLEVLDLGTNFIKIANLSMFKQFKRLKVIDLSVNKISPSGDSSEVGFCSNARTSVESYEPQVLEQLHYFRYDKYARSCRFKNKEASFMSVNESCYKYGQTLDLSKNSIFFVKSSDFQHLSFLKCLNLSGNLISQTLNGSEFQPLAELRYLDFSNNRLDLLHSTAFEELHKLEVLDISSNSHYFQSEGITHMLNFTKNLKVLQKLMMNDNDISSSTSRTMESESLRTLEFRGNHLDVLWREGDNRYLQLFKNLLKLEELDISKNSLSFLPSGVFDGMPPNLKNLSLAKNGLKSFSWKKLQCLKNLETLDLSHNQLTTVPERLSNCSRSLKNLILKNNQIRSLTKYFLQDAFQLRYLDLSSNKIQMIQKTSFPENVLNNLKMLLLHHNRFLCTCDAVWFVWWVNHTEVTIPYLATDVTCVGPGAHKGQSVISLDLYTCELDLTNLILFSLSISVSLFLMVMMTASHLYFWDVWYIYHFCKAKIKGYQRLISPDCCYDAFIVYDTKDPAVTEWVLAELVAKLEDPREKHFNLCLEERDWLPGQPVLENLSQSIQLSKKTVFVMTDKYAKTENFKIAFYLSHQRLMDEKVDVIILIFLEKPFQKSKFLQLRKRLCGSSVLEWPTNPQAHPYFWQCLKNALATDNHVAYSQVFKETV
The format is cell-based.

The target in data set [2] is T2, TLR7 (Mus musculus, UniProt P58681).
T2 construct: endogenous in cells; host or cells: primary splenocytes of BALB/c mice
T2 sequence (P58681 27-1050): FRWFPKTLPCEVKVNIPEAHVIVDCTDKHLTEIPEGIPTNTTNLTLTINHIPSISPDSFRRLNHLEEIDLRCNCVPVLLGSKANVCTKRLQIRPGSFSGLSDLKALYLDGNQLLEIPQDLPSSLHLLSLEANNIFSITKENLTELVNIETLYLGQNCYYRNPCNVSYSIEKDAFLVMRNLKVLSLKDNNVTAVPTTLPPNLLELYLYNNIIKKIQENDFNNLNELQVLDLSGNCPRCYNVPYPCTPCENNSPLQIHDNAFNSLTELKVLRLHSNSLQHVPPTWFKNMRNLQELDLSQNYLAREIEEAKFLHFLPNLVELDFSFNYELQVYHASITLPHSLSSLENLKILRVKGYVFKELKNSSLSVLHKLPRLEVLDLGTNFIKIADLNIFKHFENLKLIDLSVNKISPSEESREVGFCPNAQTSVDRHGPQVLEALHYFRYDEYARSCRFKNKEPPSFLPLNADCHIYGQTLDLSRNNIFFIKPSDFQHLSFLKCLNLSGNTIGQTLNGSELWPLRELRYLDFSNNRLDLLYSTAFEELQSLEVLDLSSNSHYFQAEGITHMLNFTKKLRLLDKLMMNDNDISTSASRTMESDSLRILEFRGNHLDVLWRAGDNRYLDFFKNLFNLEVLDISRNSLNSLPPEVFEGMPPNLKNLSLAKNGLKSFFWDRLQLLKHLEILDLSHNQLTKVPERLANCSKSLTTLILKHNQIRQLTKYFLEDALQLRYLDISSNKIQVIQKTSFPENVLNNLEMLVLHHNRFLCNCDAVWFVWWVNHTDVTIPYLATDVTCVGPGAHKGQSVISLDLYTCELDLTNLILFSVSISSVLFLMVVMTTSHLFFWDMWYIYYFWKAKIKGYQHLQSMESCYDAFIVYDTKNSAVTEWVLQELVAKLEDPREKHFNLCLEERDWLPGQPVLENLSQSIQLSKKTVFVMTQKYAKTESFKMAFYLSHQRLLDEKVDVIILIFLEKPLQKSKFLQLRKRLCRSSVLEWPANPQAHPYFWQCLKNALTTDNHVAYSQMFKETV
Nature of the data set: Tape stripping in TLR9-deficient mice. The format is in vivo. The conditions noted are these: 100 μg sc, 24 hr. The method, then: (A) TLR7−/− (black histograms) and age matched WT C57/BL6 mice (grey histograms) were either left untreated (naive) or tape stripped to provoke inflammation. 24 hr later, skin biopsies were isolated and the levels of proinflammatory genes evaluated by Taqman. n=10 mice is shown (Mean±SEM); * p≦0.05. B) TLR9−/− were tape stripped (black histograms) or tape stripped immediately after treatment (s.c) with the dual TLR7 and TLR9 inhibitor IRS 954 (100 μg; sc) (dashed histograms). Age matched WT C57/BL6 mice were either left untreated (naïve; white histograms) or tape stripped (grey histograms). 24 hr later, skin biopsies were isolated and the levels of proinflammatory genes evaluated by Taqman. n=10 mice is shown (Mean±SEM); * p≦0.05.
C57BL/6 and 129 mice were purchased from Charles River Laboratories. (NZBxNZW)F1 female mice were purchased from Jackson Laboratories and used at 18-22 weeks of age. MyD88/KO and TLR9/KO mouse colonies were maintained at Simonsen Laboratories and used with age matched C57BL/6 wild type controls at 8-12 weeks of age. Tape stripping was performed after shaving the dorsal area (3×3 cm) using 10 strokes with duct tape. IRS was administered just before tape stripping SC at a distant site. […] Percentage of area with open lesions in (NZBxNZW)F1 and normal mice was evaluated with Nikon software NIS-elements.

[I] = hypoxanthine (inosine)

Consider “5′-TGC TCC TGG AGI GGT TGT-3′ (DNA TGCTCCTGGAGNGGTTGT; DNA, [I] at 12, backbone and methylation of C not given here) [SEQ ID NO:73]”, for which, in the data set with TLR7 [1] (read-out: IC50, IFN-α, FLU), the IC50 was determined as 13 nM. Also, in the data set with TLR7 [1] (read-out: IC90, IFN-α, FLU), the IC90 was found to be 101 nM.

Consider “5′-TGCTCCTGGAGGGGTTGT-3′ (DNA, backbone not given here) [SEQ ID NO:42]”, for which, in the data set on PDC (lupus-prone mice, blood), the GC-induced neutrophil expansion result is “reduction of the GC-induced neutrophil expansion”. In addition, the “sensitivity to GC of PDC, cDC and B cells” value in the data set on PDC (lupus-prone mice, spleen and blood) was “enhanced the sensitivity to GC of PDC, cDC and B cells”. Moreover, in the data set with PDC (mouse, in vivo), the “cell death without GC” value is listed as “did not induce cell death without GC”. Also, the “inhibition of skin gene expression” value with TLR7 [2] is recorded as “completed the inhibition”.
